From PubChem BioAssay AID2060485 (Molecular Pharmacology Branch, DTP, NCI, 2025)

System: A375 multi-cell spheroids with HUVEC/MSC, viability
Assay: Anticancer human tumor A375 cell line growth inhibition [GQUAD];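 note: spheroids exposed to compounds for seven days before readout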
Conditions: for IC50: curve of first compound; for viability, T/C: stronger effect = lower value
Procedure, shortened: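 Viability of tumor cells grown as complex spheroids with endothelial and stromal cells, exposed to drug combinations. Top concentration at or near clinical Cmax (else 10 microM), diluted in half-log increments.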

[1] = second compound 0.0316 µM, first compound 0.0316 µM
[2] = second compound 0.0316 µM, first compound 0.1 µM
[3] = second compound 0.0316 µM, first compound 0.316 µM
[4] = second compound 0.0316 µM, first compound 1 µM
[5] = second compound 0.0316 µM, first compound 3.16 µM
[6] = second compound 0.0316 µM, first compound 10 µM
[7] = second compound 0.1 µM, first compound 0.0316 µM
[8] = second compound 0.1 µM, first compound 0.1 µM
[9] = second compound 0.1 µM, first compound 0.316 µM
[10] = second compound 0.1 µM, first compound 1 µM
[11] = second compound 0.1 µM, first compound 3.16 µM
[12] = second compound 0.1 µM, first compound 10 µM
[13] = second compound 0.316 µM, first compound 0.0316 µM
[14] = second compound 0.316 µM, first compound 0.1 µM
[15] = second compound 0.316 µM, first compound 0.316 µM
[16] = second compound 0.316 µM, first compound 1 µM
[17] = second compound 0.316 µM, first compound 3.16 µM
[18] = second compound 0.316 µM, first compound 10 µM
[19] = second compound 1 µM, first compound 0.0316 µM
[20] = second compound 1 µM, first compound 0.1 µM
[21] = second compound 1 µM, first compound 0.316 µM
[22] = second compound 1 µM, first compound 1 µM
[23] = second compound 1 µM, first compound 3.16 µM
[24] = second compound 1 µM, first compound 10 µM
[25] = second compound 3.16 µM, first compound 0.0316 µM
[26] = second compound 3.16 µM, first compound 0.1 µM
[27] = second compound 3.16 µM, first compound 0.316 µM
[28] = second compound 3.16 µM, first compound 1 µM
[29] = second compound 3.16 µM, first compound 3.16 µM
[30] = second compound 3.16 µM, first compound 10 µM
[31] = second compound 10 µM, first compound 0.0316 µM
[32] = second compound 10 µM, first compound 0.1 µM
[33] = second compound 10 µM, first compound 0.316 µM
[34] = second compound 10 µM, first compound 1 µM
[35] = second compound 10 µM, first compound 3.16 µM
[36] = second compound 10 µM, first compound 10 µM

COc1cc(C2c3cc4c(cc3C(OC3OC5COC(C)OC5C(O)C3O)C3COC(=O)C23)OCO4)cc(OC)c1O (stereo not drawn) + Cc1cnc(CNC(=O)c2c(=O)c3ccc(N4CCCN(C)CC4)nc3n3c2sc2ccccc23)cn1
IC50 (second compound 0.0316 µM): 656 nM | IC50 (second compound 0.1 µM): 213 nM | IC50 (second compound 0.316 µM): < 31.6 nM | IC50 (second compound 1 µM): < 31.6 nM | IC50 (second compound 3.16 µM): < 31.6 nM | IC50 (second compound 10 µM): < 31.6 nM | viability, T/C [1]: 110% | viability, T/C [2]: 90.6% | viability, T/C [3]: 65.6% | viability, T/C [4]: 40.7% | viability, T/C [5]: 27.4% | viability, T/C [6]: 20.2% | viability, T/C [7]: 73.6% | viability, T/C [8]: 59.8% | viability, T/C [9]: 43.6% | viability, T/C [10]: 33.5% | viability, T/C [11]: 25.8% | viability, T/C [12]: 14.7% | viability, T/C [13]: 48.3% | viability, T/C [14]: 50.2% | viability, T/C [15]: 37.8% | viability, T/C [16]: 32.4% | viability, T/C [17]: 22.1% | viability, T/C [18]: 14.3% | viability, T/C [19]: 40.1% | viability, T/C [20]: 38.6% | viability, T/C [21]: 30.6% | viability, T/C [22]: 30.7% | viability, T/C [23]: 22.3% | viability, T/C [24]: 15.3% | viability, T/C [25]: 34% | viability, T/C [26]: 32.5% | viability, T/C [27]: 31% | viability, T/C [28]: 26% | viability, T/C [29]: 23.4% | viability, T/C [30]: 13.9% | viability, T/C [31]: 29.2% | viability, T/C [32]: 28.1% | viability, T/C [33]: 31.8% | viability, T/C [34]: 27.3% | viability, T/C [35]: 21% | viability, T/C [36]: 13.4%

COc1cccc2c1C(=O)c1c(O)c3c(c(O)c1C2=O)CC(O)(C(=O)CO)CC3OC1CC(N)C(O)C(C)O1 (stereo not drawn) + Cc1cnc(CNC(=O)c2c(=O)c3ccc(N4CCCN(C)CC4)nc3n3c2sc2ccccc23)cn1
IC50 (second compound 0.0316 µM): 168 nM | IC50 (second compound 0.1 µM): 56.2 nM | IC50 (second compound 0.316 µM): < 31.6 nM | IC50 (second compound 1 µM): < 31.6 nM | IC50 (second compound 3.16 µM): < 31.6 nM | IC50 (second compound 10 µM): < 31.6 nM | viability, T/C [1]: 109% | viability, T/C [2]: 64.1% | viability, T/C [3]: 31.2% | viability, T/C [4]: 20.5% | viability, T/C [5]: 1.64% | viability, T/C [6]: 0.08% | viability, T/C [7]: 59.3% | viability, T/C [8]: 38.7% | viability, T/C [9]: 30.2% | viability, T/C [10]: 17.9% | viability, T/C [11]: 1% | viability, T/C [12]: 0.06% | viability, T/C [13]: 41.5% | viability, T/C [14]: 33.4% | viability, T/C [15]: 27.4% | viability, T/C [16]: 16.1% | viability, T/C [17]: 0.21% | viability, T/C [18]: 0.08% | viability, T/C [19]: 37.1% | viability, T/C [20]: 30.9% | viability, T/C [21]: 27.4% | viability, T/C [22]: 15.2% | viability, T/C [23]: 0.07% | viability, T/C [24]: 0.09% | viability, T/C [25]: 33% | viability, T/C [26]: 31.4% | viability, T/C [27]: 24.5% | viability, T/C [28]: 14.9% | viability, T/C [29]: 0.12% | viability, T/C [30]: 0.13% | viability, T/C [31]: 25.6% | viability, T/C [32]: 24.9% | viability, T/C [33]: 20.4% | viability, T/C [34]: 13.7% | viability, T/C [35]: 0.21% | viability, T/C [36]: 0.22%

O=C(NO)c1cnc(N2CCN(S(=O)(=O)c3ccc4ccccc4c3)CC2)nc1 + Cc1cnc(CNC(=O)c2c(=O)c3ccc(N4CCCN(C)CC4)nc3n3c2sc2ccccc23)cn1
IC50 (second compound 0.0316 µM): 210 nM | IC50 (second compound 0.1 µM): 124 nM | IC50 (second compound 0.316 µM): 109 nM | IC50 (second compound 1 µM): < 31.6 nM | IC50 (second compound 3.16 µM): < 31.6 nM | IC50 (second compound 10 µM): < 31.6 nM | viability, T/C [1]: 115% | viability, T/C [2]: 124% | viability, T/C [3]: 11.9% | viability, T/C [4]: 0.22% | viability, T/C [5]: 0.16% | viability, T/C [6]: 0.19% | viability, T/C [7]: 75.2% | viability, T/C [8]: 59.1% | viability, T/C [9]: 10.8% | viability, T/C [10]: 0.18% | viability, T/C [11]: 0.13% | viability, T/C [12]: 0.17% | viability, T/C [13]: 64.1% | viability, T/C [14]: 53.2% | viability, T/C [15]: 9.31% | viability, T/C [16]: 0.13% | viability, T/C [17]: 0.11% | viability, T/C [18]: 0.14% | viability, T/C [19]: 44.6% | viability, T/C [20]: 36.8% | viability, T/C [21]: 0.9% | viability, T/C [22]: 0.11% | viability, T/C [23]: 0.09% | viability, T/C [24]: 0.12% | viability, T/C [25]: 32.8% | viability, T/C [26]: 23.3% | viability, T/C [27]: 0.17% | viability, T/C [28]: 0.11% | viability, T/C [29]: 0.11% | viability, T/C [30]: 0.15% | viability, T/C [31]: 28.5% | viability, T/C [32]: 22.6% | viability, T/C [33]: 0.2% | viability, T/C [34]: 0.12% | viability, T/C [35]: 0.18% | viability, T/C [36]: 0.21%

O=c1[nH]cc(F)c(=O)[nH]1 + Cc1cnc(CNC(=O)c2c(=O)c3ccc(N4CCCN(C)CC4)nc3n3c2sc2ccccc23)cn1
IC50 (second compound 0.0316 µM): > 10000 nM | IC50 (second compound 0.1 µM): > 10000 nM | IC50 (second compound 0.316 µM): 675 nM | IC50 (second compound 1 µM): < 31.6 nM | IC50 (second compound 3.16 µM): < 31.6 nM | IC50 (second compound 10 µM): < 31.6 nM | viability, T/C [1]: 98.5% | viability, T/C [2]: 105% | viability, T/C [3]: 92.4% | viability, T/C [4]: 107% | viability, T/C [5]: 112% | viability, T/C [6]: 96.5% | viability, T/C [7]: 75.9% | viability, T/C [8]: 67.8% | viability, T/C [9]: 82.8% | viability, T/C [10]: 81.4% | viability, T/C [11]: 88.7% | viability, T/C [12]: 63.1% | viability, T/C [13]: 56.8% | viability, T/C [14]: 51.4% | viability, T/C [15]: 50.7% | viability, T/C [16]: 49.4% | viability, T/C [17]: 48.6% | viability, T/C [18]: 45.3% | viability, T/C [19]: 44.9% | viability, T/C [20]: 41.3% | viability, T/C [21]: 47.6% | viability, T/C [22]: 51.7% | viability, T/C [23]: 45.8% | viability, T/C [24]: 37.7% | viability, T/C [25]: 40.3% | viability, T/C [26]: 33.4% | viability, T/C [27]: 34.6% | viability, T/C [28]: 36% | viability, T/C [29]: 39% | viability, T/C [30]: 30.7% | viability, T/C [31]: 37.3% | viability, T/C [32]: 30% | viability, T/C [33]: 32.6% | viability, T/C [34]: 33.9% | viability, T/C [35]: 30.3% | viability, T/C [36]: 29.4%
